COc1ccc2nc(SCc3ncc(C)c(OC)c3C)[nH]c2c1
solubility (mole fraction)
Settings	in acetone	in ethanol	in ethyl acetate	in isopropanol	in methanol	in n-butanol	in n-propanol
280.35 K	0.005	0.0144	0.0033	0.0032	0.0127	0.0103	0.0076
284.35 K	0.0065	0.0189	0.004	0.0044	0.0178	0.0134	0.0101
288.15 K	0.0083	0.0248	0.0049	0.0058	0.0239	0.0171	0.0134
292.25 K	0.0108	0.0323	0.0058	0.0079	0.0322	0.0218	0.0178
296.65 K	0.014	0.0412	0.0073	0.0108	0.0442	0.0292	0.0234
300.25 K	0.0172	0.0511	0.0085	0.014	0.0559	0.0356	0.0296
303.15 K	0.0203	0.0606	0.0098	0.0172	0.0668	0.0425	0.0359
307.65 K	0.0263	0.0775	0.0122	0.0234	0.0887	0.0549	0.047
311.15 K	0.0319	0.0946	0.0142	0.0286	0.11	0.0661	0.0567
315.15 K	0.039	0.115	0.0165	0.037	0.138	0.0824	0.0713
319.65 K	0.0496	0.141	0.0208	0.0482	0.172	0.104	0.0914

— BigSolDB 2.1
